Data on 28 compounds can be found in patent US8097628B2, “Compounds” (Glaxo Group Limited, priority 2008, dated 2012).

The assay deals with Mycobacterium tuberculosis H37Rv. In words: Mycobacterium tuberculosis H37Rv Inhibition Assay. Format: cell-based.
The mark [1] stands for this setting: H37Rv inhibition assay, read-out: MIC value.
Where [2] appears, read: ATCC 25618 / H37Rv, H37Rv strain (ATCC25618), Middlebrook 7H9, resazurin fluorescence, read-out: MtB MIC.

SMILES strings stand for the structures. In brackets after ≈: the same amount, converted by molar mass. Counter-ions that a name gives are not always drawn. Like-named read-outs stand apart in the source and are kept apart here.

Broadly, the MIC is the lowest concentration found to suppress growth. Take `COCCc1ncc(CNC2CCN(C[C@@H]3Cn4c(=O)ccc5ncc(=O)n3c54)CC2)cc1Cl` [Example 65, (2R)-2-({4-[({5-chloro-6-[2-(methyloxy)ethyl]-3-pyridinyl}methyl)amino]-1-piperidinyl}methyl)-1,2-dihydro-3H,8H-2a,5,8a-triazaacenaphthylene-3,8-dione]: the MIC under setting [1] is over 1 µg/mL.
Regarding `Cc1cc(CNC2CCN(CC3Cn4c(=O)ccc5ncc(=O)n3c54)CC2)sc1Br` (centres unmarked) [Example 24, 2-[(4-{[(5-bromo-4-methyl-2-thienyl)methyl]amino}-1-piperidinyl)methyl]-1,2-dihydro-3H,8H-2a,5,8a-triazaacenaphthylene-3,8-dione], the MIC under setting [2] came to 0.077 µg/mL (≈ 0.157 µM).
Turning to `O=c1ccc2ncc(=O)n3c2n1CC3CN1CCC(NCc2ccc([N+](=O)[O-])cc2)CC1` (centres unmarked) [Example 38, 2-[(4-{[(4-nitrophenyl)methyl]amino}-1-piperidinyl)methyl]-1,2-dihydro-3H,8H-2a,5,8a-triazaacenaphthylene-3,8-dione], the MIC under setting [2] worked out at 0.273 µg/mL (≈ 0.625 µM).
In the case of `Cc1ncc(CNC2CCN(C[C@@H]3Cn4c(=O)ccc5ncc(=O)n3c54)CC2)cc1Br` [Example 51, (2R)-2-[(4-{[(5-bromo-6-methyl-3-pyridinyl)methyl]amino}-1-piperidinyl)methyl]-1,2-dihydro-3H,8H-2a,5,8a-triazaacenaphthylene-3,8-dione hydrochloride], the MIC (ATCC 25618 / H37Rv, read-out: MtB MIC) stood at 0.015 µg/mL.
In the case of `CCc1ncc(CNC2CCN(C[C@@H]3Cn4c(=O)ccc5ccc(=O)n3c54)CC2)cc1F` [Example 54, (1R)-1-[(4-{[(6-ethyl-5-fluoro-3-pyridinyl)methyl]amino}-1-piperidinyl)methyl]-1,2-dihydro-4H,9H-imidazo[1,2,3-ij]-1,8-naphthyridine-4,9-dione], under setting [2], the minimal inhibitory concentration (MIC) worked out at 2.19 µg/mL (≈ 5 µM).
Same read-out and setting: for `Cc1ccc(CNC2CCN(CC3Cn4c(=O)ccc5ncc(=O)n3c54)CC2)cc1[N+](=O)[O-]` (centres unmarked) [Example 23, 2-[(4-{[(4-methyl-3-nitrophenyl)methyl]amino}-1-piperidinyl)methyl]-1,2-dihydro-3H,8H-2a,5,8a-triazaacenaphthylene-3,8-dione] the value was 0.036 µg/mL (≈ 0.0799 µM).
For `Cl.O=c1ccc2ncc(=O)n3c2n1C[C@H]3CN1CCC(NCc2ccc(C(F)(F)F)nc2)CC1` [Example 46, (2R)-2-{[4-({[6-(trifluoromethyl)-3-pyridinyl]methyl}amino)-1-piperidinyl]methyl}-1,2-dihydro-3H,8H-2a,5,8a-triazaacenaphthylene-3,8-dione hydrochloride], under setting [2], the MIC is 0.078 µg/mL.
On the same count and under the same terms, for `Cc1cc(CNC2CCN(CC3Cn4c(=O)ccc5ncc(=O)n3c54)CC2)cnc1F` (centres unmarked) [Example 33, 2-[(4-{[(6-fluoro-5-methyl-3-pyridinyl)methyl]amino}-1-piperidinyl)methyl]-1,2-dihydro-3H,8H-2a,5,8a-triazaacenaphthylene-3,8-dione] the value was 0.531 µg/mL (≈ 1.25 µM); for `Cc1ncc(CNC2CCN(C[C@@H]3Cn4c(=O)ccc5ccc(=O)n3c54)CC2)cc1Cl.Cl` [Example 1, (1R)-1-[(4-{[(5-chloro-6-methyl-3-pyridinyl)methyl]amino}-1-piperidinyl)methyl]-1,2-dihydro-4H,9H-imidazo[1,2,3-ij]-1,8-naphthyridine-4,9-dione hydrochloride], 0.04 µg/mL.
Same read-out and setting: for `Cc1cc(CNC2CCN(CC3Cn4c(=O)ccc5ncc(=O)n3c54)CC2)ccc1Cl` (centres unmarked) [Example 34, 2-[(4-{[(4-chloro-3-methylphenyl)methyl]amino}-1-piperidinyl)methyl]-1,2-dihydro-3H,8H,2a,5,8a-triazaacenaphthylene-3,8-dione] the value was 0.069 µg/mL (≈ 0.157 µM); for `O=c1cnc2ccc(=O)n3c2n1C[C@H]3CN1CCC(NCc2ccc(Cl)c(Cl)c2)CC1` [Example 10, (1R)-1-[(4-{[(3,4-dichlorophenyl)methyl]amino}-1-piperidinyl)methyl]-1,2-dihydro-3H,8H-2a,5,8a-triazaacenaphthylene-3,8-dione], under 0.02 µg/mL; for `N#Cc1ncc(CNC2CCN(C[C@@H]3Cn4c(=O)ccc5ccc(=O)n3c54)CC2)cc1Cl` [Example 49, 3-chloro-5-{[(1-{[(1R)-4,9-dioxo-1,2-dihydro-4H,9H-imidazo[1,2,3-ij]-1,8-naphthyridin-1-yl]methyl}-4-piperidinyl)amino]methyl}-2-pyridinecarbonitrile], 0.07 µg/mL (≈ 0.155 µM).
As to `Cl.N#Cc1ncc(CNC2CCN(C[C@@H]3Cn4c(=O)ccc5ccc(=O)n3c54)CC2)cc1Cl` [Example 50, 3-chloro-5-{[(1-{[(1R)-4,9-dioxo-1,2-dihydro-4H,9H-imidazo[1,2,3-ij]-1,8-naphthyridin-1-yl]methyl}-4-piperidinyl)amino]methyl}-2-pyridinecarbonitrile dihydrochloride], the MIC under setting [2] was determined as 0.082 µg/mL.
Take `COc1ccc(CNC2CCN(CC3Cn4c(=O)ccc5ncc(=O)n3c54)CC2)cc1Cl` (centres unmarked) [Example 39, 2-{[4-({[3-chloro-4-(methyloxy)phenyl]methyl}amino)-1-piperidinyl]methyl}-1,2-dihydro-3H,8H-2a,5,8a-triazaacenaphthylene-3,8-dione]: the MIC is, setting by setting: under setting [2], 1.14 µg/mL (≈ 2.5 µM); under setting [1], over 1 µg/mL.
On to `O=c1ccc2ncc(=O)n3c2n1CC3CN1CCC(NCc2cncc(Br)c2)CC1` (centres unmarked) [Example 41, 2-[(4-{[(5-bromo-3-pyridinyl)methyl]amino}-1-piperidinyl)methyl]-1,2-dihydro-3H,8H-2a,5,8a-triazaacenaphthylene-3,8-dione], for which, under setting [2], the MIC was 0.884 µg/mL (≈ 1.88 µM).
Regarding `O=c1ccc2ncc(=O)n3c2n1CC3CN1CCC(NCc2ccc(Br)cn2)CC1` (centres unmarked) [Example 40, 2-[(4-{[(5-bromo-2-pyridinyl)methyl]amino}-1-piperidinyl)methyl]-1,2-dihydro-3H,8H-2a,5,8a-triazaacenaphthylene-3,8-dione], the MIC runs as follows: under setting [2], 1.18 µg/mL (≈ 2.5 µM); under setting [1], over 1 µg/mL.
As to `Cc1ncc(CNC2CCN(CC3Cn4c(=O)ccc5ncc(=O)n3c54)CC2)cc1F` (centres unmarked) [Example 52, 2-[(4-{[(5-fluoro-6-methyl-3-pyridinyl)methyl]amino}-1-piperidinyl)methyl]-1,2-dihydro-3H,8H-2a,5,8a-triazaacenaphthylene-3,8-dione], the MIC under setting [2] was over 2.12 µg/mL and the MIC under setting [1] is over 1 µg/mL.
With `O=c1ccc2ccc(=O)n3c2n1C[C@H]3CN1CCC(NCc2ccc(CO)c(Cl)c2)CC1` [Example 64, (1R)-1-{[4-({[3-chloro-4-(hydroxymethyl)phenyl]methyl}amino)-1-piperidinyl]methyl}-1,2-dihydro-4H,9H-imidazo[1,2,3-ij]-1,8-naphthyridine-4,9-dione], the MIC under setting [1] is over 1 µg/mL.
As for `O=c1ccc2ncc(=O)n3c2n1CC3CN1CCC(NCc2ccc(OC(F)(F)F)cc2)CC1` (centres unmarked) [Example 27, 2-({4-[({4-[(trifluoromethyl)oxy]phenyl}methyl)amino]-1-piperidinyl}methyl)-1,2-dihydro-3H,8H-2a,5,8a-triazaacenaphthylene-3,8-dione], the MIC reads like this: under setting [2], 2.38 µg/mL (≈ 5 µM); under setting [1], over 1 µg/mL.
Take `Cc1ccc(CNC2CCN(CC3Cn4c(=O)ccc5ncc(=O)n3c54)CC2)cc1C` (centres unmarked) [Example 25, 2-[(4-{[(3,4-dimethylphenyl)methyl]amino}-1-piperidinyl)methyl]-1,2-dihydro-3H,8H-2a,5,8a-triazaacenaphthylene-3,8-dione]: under setting [2], the MIC stood at 0.262 µg/mL (≈ 0.625 µM).
Same read-out and setting: next, `Cl.O=c1ccc2ncc(=O)n3c2n1CC3CN1CCC(NCc2ccc(Cl)c(Cl)c2)CC1` (centres unmarked) [Example 36, 2-[(4-{[(3,4-dichlorophenyl)methyl]amino}-1-piperidinyl)methyl]-1,2-dihydro-3H,8H-2a,5,8a-triazaacenaphthylene-3,8-dione]: 0.015 µg/mL.
Same read-out and setting: next, `O=c1ccc2ncc(=O)n3c2n1CC3CN1CCC(NCc2ccc(Br)cc2)CC1` (centres unmarked) [Example 29, 2-[(4-{[(4-bromophenyl)methyl]amino}-1-piperidinyl)methyl]-1,2-dihydro-3H,8H-2a,5,8a-triazaacenaphthylene-3,8-dione]: 0.147 µg/mL (≈ 0.313 µM); `O=c1ccc2ncc(=O)n3c2n1CC3CN1CCC(NCc2ccc(Cl)cc2)CC1` (centres unmarked) [Example 21, 2-[(4-{[(4-chlorophenyl)methyl]amino}-1-piperidinyl)methyl]-1,2-dihydro-3H,8H-2a,5,8a-triazaacenaphthylene-3,8-dione]: 0.266 µg/mL (≈ 0.625 µM).
On the same count and under the same terms, for `O=c1cnc2ccc(=O)n3c2n1C[C@H]3CN1CCC(NCc2ccc(C(F)(F)F)nc2)CC1` [Example 11, (1R)-1-{[4-({[6-(trifluoromethyl)-3-pyridinyl]methyl}amino)-1-piperidinyl]methyl}-1,2-dihydro-3H,8H-2a,5,8a-triazaacenaphthylene-3,8-dione] the value was 0.14 µg/mL (≈ 0.304 µM); for `Cl.O=c1ccc2ccc(=O)n3c2n1C[C@H]3CN1CCC(NCc2ccc(C(F)(F)F)nc2)CC1` [Example 59, (1R)-1-{[4-({[6-(trifluoromethyl)-3-pyridinyl]methyl}amino)-1-piperidinyl]methyl}-1,2-dihydro-4H,9H-imidazo[1,2,3-ij]-1,8-naphthyridine-4,9-dione hydrochloride], 0.154 µg/mL.
Take `O=c1ccc2ncc(=O)n3c2n1CC3CN1CCC(NCc2ccc(C(F)(F)F)nn2)CC1` (centres unmarked) [Example 17, 2-{[4-({[6-(trifluoromethyl)-3-pyridazinyl]methyl}amino)-1-piperidinyl]methyl}-1,2-dihydro-3H,8H-2a,5,8a-triazaacenaphthylene-3,8-dione]: the minimum inhibitory concentration (MIC) under setting [2] amounted to 0.865 µg/mL (≈ 1.87 µM).
For the compound `Cl.O=c1ccc2ncc(=O)n3c2n1C[C@H]3CN1CCC(NCc2ccc(F)c(C(F)(F)F)c2)CC1` [Example 4, (2R)-2-{[4-({[4-fluoro-3-(trifluoromethyl)phenyl]methyl}amino)-1-piperidinyl]methyl}-1,2-dihydro-3H,8H-2a,5,8a-triazaacenaphthylene-3,8-dione hydrochloride], the minimal inhibitory concentration (MIC) under setting [2] stood at 0.04 µg/mL.
As to `CC(=O)OCc1ccc(CNC2CCN(C[C@@H]3Cn4c(=O)ccc5ccc(=O)n3c54)CC2)cc1Cl` [Example 71, (2-chloro-4-{[(1-{[(1R)-4,9-dioxo-1,2-dihydro-4H,9H-imidazo[1,2,3-ij]-1,8-naphthyridin-1-yl]methyl}-4-piperidinyl)amino]methyl}phenyl)methyl acetate], the MIC under setting [1] is over 1 µg/mL.
